# According to patent US20220257636A1, “REDUCTION OF BONE RESORPTION, ESPECIALLY IN CHRONIC JOINT DISEASES” (TECHNISCHE UNIVERSITÄT DARMSTADT, priority 2019, published 2022):
# “Also recorded” adds a separate entry of the source. {Cy5} = Cyanine5 fluorescent label
# What was measured:
# pre-osteoclasts = experiment: Induction of osteoclast genesis, substances added to pre-osteoclasts; format: cell-based, human; conditions: TLR7/8 agonist added to pre-osteoclasts
# Description: (§1) After 9 to 12 days the cells were fixed and tested for the osteoclast marker TRAP (tartrate-resistant acid phosphatase). TRAP positive cells which also comprised at least three nuclei were classified as osteoclasts and counted with the light microscope.
# (§2) Isolated human CD14^+ monocytes were treated with 1 μg/ml miR-574-5p oe sEVs or ScrC sEVs at different time points of the differentiation (FIG. 8A, 8B, 8C).
# CD14+ monocytes [1] = experiment: Cytokine mRNA levels by RT-qPCR after stimulation of CD14+ monocytes; format: cell-based, human
# Description: CD14^+ monocytes were stimulated with sEVs from the synovial fluid of ACPA positive patients with rheumatoid arthritis (4 μg/ml), with miR-574-5p oe sEVs (1 μg/ml) or with ScrC sEVs (1 μg/ml) for 4 hours each. Then the whole RNA was isolated and the mRNA levels of IL-23, IL-8, INFα, IL-1β and TNFα were analyzed with RT-qPCR. These cytokines are known for their influence onto the differentiation of osteoclasts (Amara-sekara D. S., Yun Ii., Kim S., Lee N. and Rho J. (2018). “Regulation of Osteoclast Differentiation by Cytokine Networks.” Immune Netw 18: • 1-18). The sequences of the primer pairs used are shown in the sequence protocol (SEQ ID NOs: 6-7 for INFα, SEQ ID NOs: 8-9 for IL-23, SEQ ID NOs: 10-11 for TNFα, SEQ ID NOs: 12-13 for IL-1β and SEQ ID NOs: 14-15 for IL-8). For the normalization of the cDNA amounts in different samples the levels of β-actin were used (primer pair: SEQ ID NOs: 16-17).
# CD14+ monocytes [2] = experiment: Induction of osteoclast genesis (count of TRAP positive multinuclear cells), substances added to CD14+ monocytes; format: cell-based, human
# Description: (§3) CD14^+ monocytes were isolated from PMBCs (peripheral blood mononuclear cells) of healthy donors and stimulated with M-CSF (recombinant human macrophage colony-stimulating factor), RANK-L (receptor activator of NF-κB ligand) and different concentrations of the isolated sEVs. With the sEVs isolated from the synovial fluid both freshly isolated monocytes and differentiated M2-like macrophages were stimulated (FIG. 2).
# as §1, §2
# The influence of the miR-574-5p PNA AntagomiR which was coupled to CPP onto the osteoclast genesis was tested. This scheme has been adapted such that on day 1 the CPP-coupled miR-574-5p PNA AntagomiR (CPP-PNA) was added in concentrations of 10 μM or 20 μM. The negative control was conducted without any addition of CPP-PNA (0 μm CPP-PNA). […] Also for this experiment freshly isolated human monocytes were used. After the completion of the differentiation matured osteoclasts were visualized with the help of histologic staining (detection of tartrate-resistant acid phosphatases, TRAP). Subsequently, multinuclear TRAP positive cells are quantified under a light microscope.
# [3] = tested on: freshly isolated human monocytes
# Description: The cytotoxicity was tested with an MTT assay in which the eponymous dye MTT (3-(4,5-dimethylthiazol-2-yl)-2,5-diphenyltetrazoliumbromide) is used. As negative control a PNA with a sequence which was not complementary to miR-574-5p and which was also bound to CPP by means of the PEG linker was tested (SEQ ID NO: 30). The CPP-PNA construct of the negative control used can be illustrated as follows (from the N-terminus to the C-terminus): [sequence]-(eg1)-[sequence](K—NH2). The negative control differs from the above-described construct according to the present invention only with respect to the PNA sequence.
# The cytotoxicity was tested on freshly isolated human monocytes.
# M2-like macrophages = experiment: Induction of osteoclast genesis (count of TRAP positive multinuclear cells), substances added to M2-like macrophages; format: cell-based, human; conditions: added with miR-574-5p to M2-like macrophages (FIG. 10D)
# Description: as §3, §1, §2
# TLR8 = molecular target: T1, TLR8 (Homo sapiens, UniProt Q9NR97); experiment: MST (microscale thermophoresis) direct interaction with TLR8; format: binding; conditions: Cy5-labeled miR
# T1 sequence (Q9NR97 27-1041): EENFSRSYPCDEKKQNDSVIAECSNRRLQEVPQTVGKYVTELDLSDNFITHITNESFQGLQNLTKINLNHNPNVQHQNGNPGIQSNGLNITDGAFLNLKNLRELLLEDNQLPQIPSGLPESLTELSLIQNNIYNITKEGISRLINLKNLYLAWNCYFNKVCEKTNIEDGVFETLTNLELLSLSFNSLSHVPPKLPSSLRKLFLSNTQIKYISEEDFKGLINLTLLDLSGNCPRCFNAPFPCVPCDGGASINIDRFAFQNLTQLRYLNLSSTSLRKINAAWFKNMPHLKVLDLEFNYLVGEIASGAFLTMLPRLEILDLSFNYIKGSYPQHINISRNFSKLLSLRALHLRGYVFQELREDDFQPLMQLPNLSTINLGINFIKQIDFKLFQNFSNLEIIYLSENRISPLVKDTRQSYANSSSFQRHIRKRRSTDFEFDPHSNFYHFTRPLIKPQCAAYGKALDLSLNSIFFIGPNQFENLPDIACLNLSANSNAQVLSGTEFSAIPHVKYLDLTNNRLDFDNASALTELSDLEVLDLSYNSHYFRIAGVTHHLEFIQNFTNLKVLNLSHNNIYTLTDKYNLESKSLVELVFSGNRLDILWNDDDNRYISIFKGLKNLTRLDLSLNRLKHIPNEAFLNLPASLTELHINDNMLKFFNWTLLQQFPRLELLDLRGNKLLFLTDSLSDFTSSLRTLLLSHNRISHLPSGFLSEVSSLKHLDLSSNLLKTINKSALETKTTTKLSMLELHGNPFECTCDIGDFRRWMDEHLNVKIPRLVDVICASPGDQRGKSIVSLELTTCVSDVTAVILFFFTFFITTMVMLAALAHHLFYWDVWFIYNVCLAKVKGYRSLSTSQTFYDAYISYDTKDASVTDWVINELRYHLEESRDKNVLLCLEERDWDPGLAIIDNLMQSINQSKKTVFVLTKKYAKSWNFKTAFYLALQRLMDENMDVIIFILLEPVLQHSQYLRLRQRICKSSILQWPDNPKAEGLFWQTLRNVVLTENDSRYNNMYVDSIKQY
# Description: In the context of the present invention, a direct interaction of miR-574-5p with TLR8 was detected by means of MST (microscale thermophoresis); (Wienken C. J., Baaske P., Rothbauer U., Braun D. and Duhr S. (2010). “Protein-binding assays in biological liquids using microscale thermophoresis.” Nat Commun 1: 100). […] For the MST experiments Cy5-labeled miR-574-5p (SEQ ID NO: 18) and Cy5-labeled miR-16-5p (SEQ ID NO: 19) were used.
# [4] = 10 ng/ml, compared with miR-574-5p oe sEVs (FIGS. 11E and 11F)
compound,measurement,setting,value
CCOCc1nc2c(N)nc3ccccc3c2n1CC(C)(C)O [R848],osteoclast genesis,pre-osteoclasts,no significant increase
same,IL-23 mRNA,CD14+ monocytes [1]; [4],Comparable results
same,INFα mRNA,CD14+ monocytes [1]; [4],Comparable results
"GRKKRWFRRRRMKWKK-(eg1)-ctcacacacacacactca(K—CONH2) (PEG linker, C-terminal amide; Cell Penetrating Peptide (CPP); Peptide Nucleic Acid (PNA) AntagomiR) [CPP-coupled miR-574-5p PNA AntagomiR]",osteoclast genesis,"CD14+ monocytes [2]; added on day 1 at 10 μM or 20 μM, versus 0 μM, TRAP positive multinuclear cells",concentration-dependent reduction
same,"cytotoxicity (MTT, viability)",[3],Neither in the case of the negative control (FIG. 13A) nor in the case of miR-574-5p PNA AntagomiR (FIG. 13B) a significant toxicity was observed
same,viability in comparison to the untreated control,[3],increased viability
"GRKKRWFRRRRMKWKK-(eg1)-gctattaccttaacccag(K—NH2) (GCTATTACCTTAACCCAG; all peptide nucleic acid (PNA); N-terminal cell-penetrating peptide via eg1 linker, C-terminal lysine amide, further chemistry not fully specified) [negative control]","cytotoxicity (MTT, viability)",[3],Neither in the case of the negative control (FIG. 13A) nor in the case of miR-574-5p PNA AntagomiR (FIG. 13B) a significant toxicity was observed
"ODN 2087: TLR7/8 inhibitor oligonucleotide, SEQ ID NO: 24, MiltenyiBiotec (TCCTGAGCTTGAAGT; DNA, all phosphorothioate, methylation of C not given here)",effect of inhibitor on the R848 effect on the number of osteoclasts,CD14+ monocytes [2]; added with R848 (FIGS. 10E and 10F),nullify the effect
same,effect of inhibitor on the miR-574-5p induced increase of the number of osteoclasts,CD14+ monocytes [2]; added with miR-574-5p to CD14+ monocytes (FIG. 10C),nullifies the effect
same,effect of inhibitor on the miR-574-5p induced increase of the number of osteoclasts,M2-like macrophages,nullifies the effect
same,effect of inhibitor on the induced INFα and IL-23 mRNA increases,CD14+ monocytes [1]; added to the stimulation with sEVs or R848,nullify the observed effects
"miR-16-5p: microRNA; Cy5-labeled form (SEQ ID NO: 19) used for MST (UAGCAGCACGUAAAUAUUGGCG; RNA, 3' {Cy5}, backbone not given here)",specific interaction with TLR8,TLR8,specific interaction between TLR8 and miR-16-5p was not shown; also recorded: specific interaction between TLR8 and miR-16-5p was not observed
"miR-574-5p: microRNA, SEQ ID NO: 4; Cy5-labeled form (SEQ ID NO: 18) used for MST (UGAGUGUGUGUGUGUGAGUGUGU; Cy5-labeled form used for MST, label position not given here; listed as Homo sapiens)",stimulation of the osteoclast genesis,"CD14+ monocytes [2]; miR-574-5p alone, not in sEVs (FIG. 9)","Neither miR-574-5p alone, nor miR-574-5p in the presence of synthetic liposomal vehicles (Lipofectamine® 2000 (Thermo Fisher Scientific, Waltham, USA)) results in a stimulation"
same,stimulation of the osteoclast genesis,CD14+ monocytes [2]; miR-574-5p in the presence of synthetic liposomal vehicles (Lipofectamine 2000) (FIG. 9),"Neither miR-574-5p alone, nor miR-574-5p in the presence of synthetic liposomal vehicles (Lipofectamine® 2000 (Thermo Fisher Scientific, Waltham, USA)) results in a stimulation"
same,Kd,TLR8; read-out: constant of dissociation KD,0.0308 ± 0.0052 µM
same,IL-1β mRNA level,CD14+ monocytes [1]; any of the conditions tested,not influenced
same,IL-8 mRNA level,CD14+ monocytes [1]; any of the conditions tested,not influenced
same,TNFα mRNA level,CD14+ monocytes [1]; any of the conditions tested,not influenced
